From ChEMBL document CHEMBL1201862, “PubChem BioAssay data set” (2004)
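Values below derive from 48-hour exposures of cells grown in 96-well plates, with endpoints linearly interpolated between the two concentrations bracketing the appropriate inhibition level. GI50 = concentration required for 50% inhibition of growth.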 Calls of active or inactive are those of the source. No stated cut-off is given here; in the data, active = GI50 up to about 1.1 µM and inactive = higher.

Key:
Test in all cases: DTP human tumour cell line panel, 48 h
MCF7 = tested on: MCF7
U-251 = tested on: U-251
A498 = tested on: A498
PC-3 = tested on: PC-3
HOP-92 = tested on: HOP-92
UO-31 = tested on: UO-31
RXF 393 = tested on: RXF 393
HT-29 = tested on: HT-29
MDA-MB-231 = tested on: MDA-MB-231
HOP-62 = tested on: HOP-62
Malme-3M = tested on: Malme-3M
MOLT-4 = tested on: MOLT-4
HCC 2998 = tested on: HCC 2998
SK-OV-3 = tested on: SK-OV-3
NCI-H522 = tested on: NCI-H522
SK-MEL-5 = tested on: SK-MEL-5
SF-295 = tested on: SF-295
DU-145 = tested on: DU-145
KM12 = tested on: KM12
COLO 205 = tested on: COLO 205

Measured: GI50

Nc1c(C(=O)Nc2ccc([As](=O)(O)O)cc2)cnc2nnnn12
inactive: MCF7 > 100 µM | U-251 > 100 µM | A498 > 100 µM | PC-3 > 100 µM | HOP-92 > 100 µM | UO-31 > 100 µM | RXF 393 > 100 µM | HT-29 > 100 µM | MDA-MB-231 > 100 µM | HOP-62 > 100 µM | Malme-3M > 100 µM | MOLT-4 > 100 µM | HCC 2998 > 100 µM | SK-OV-3 > 100 µM | NCI-H522 > 100 µM | SK-MEL-5 > 100 µM | SF-295 > 100 µM | DU-145 > 100 µM | KM12 > 100 µM | COLO 205 > 100 µM

CC1(C)CCC[C@@]2(C)C1CC[C@@]1(CO1)[C@@H]2/C=C\C(C=O)CC=O (stereo not given in full)
inactive: MCF7 > 100 µM | U-251 > 96.6 µM | A498 > 100 µM | PC-3 > 70.3 µM | HOP-92 > 100 µM | UO-31 > 94.8 µM | RXF 393 99.8 µM | HT-29 > 56.6 µM | MDA-MB-231 > 100 µM | HOP-62 > 100 µM | Malme-3M > 100 µM | MOLT-4 21.5 µM | HCC 2998 > 100 µM | SK-OV-3 > 100 µM | NCI-H522 42.4 µM | SK-MEL-5 > 100 µM | SF-295 > 100 µM | DU-145 > 100 µM | KM12 > 67.9 µM | COLO 205 > 91.8 µM

CC(=O)NNc1nc(C)c(C(=O)NNC(=O)C(=O)Nc2nc3ccc([N+](=O)[O-])cc3s2)s1
inactive: MCF7 31 µM | U-251 47.5 µM | A498 33.6 µM | PC-3 26.9 µM | HOP-92 28.8 µM | UO-31 33.2 µM | RXF 393 > 59.8 µM | HT-29 54.7 µM | MDA-MB-231 18.7 µM | HOP-62 > 82.6 µM | Malme-3M 35 µM | MOLT-4 28.8 µM | HCC 2998 42.1 µM | SK-OV-3 64.4 µM | NCI-H522 18.7 µM | SK-MEL-5 42.6 µM | SF-295 60.8 µM | DU-145 70.1 µM | KM12 33.9 µM | COLO 205 > 81.1 µM

CN1C(=O)[C@](C)(Cc2ccc(F)cc2)N(C(=O)OC(C)(C)C)[C@@H]1C(C)(C)C
inactive: MCF7 22.8 µM | U-251 29.6 µM | A498 23.4 µM | PC-3 30.5 µM | HOP-92 30.7 µM | UO-31 33.6 µM | RXF 393 21.3 µM | HT-29 22.1 µM | MDA-MB-231 38.1 µM | HOP-62 40.7 µM | Malme-3M > 100 µM | MOLT-4 17.9 µM | HCC 2998 24.3 µM | SK-OV-3 43.9 µM | NCI-H522 23.1 µM | SK-MEL-5 19.6 µM | SF-295 20.3 µM | DU-145 42.3 µM | KM12 30.5 µM | COLO 205 19.5 µM

N#CC1=C(N)C(C#N)(C#N)C(c2ccc(F)cc2)C=C1C1CC1 (stereo not given)
inactive: MCF7 5.09 µM | U-251 5.68 µM | A498 11.4 µM | PC-3 10.2 µM | HOP-92 11.9 µM | UO-31 14 µM | RXF 393 5.96 µM | HT-29 6.12 µM | MDA-MB-231 16.5 µM | HOP-62 13.1 µM | Malme-3M 11.5 µM | MOLT-4 4.81 µM | HCC 2998 12.8 µM | SK-OV-3 8.93 µM | NCI-H522 3.78 µM | SK-MEL-5 4.46 µM | SF-295 11.2 µM | DU-145 12.9 µM | KM12 4.14 µM | COLO 205 12.4 µM

CCOC(=O)C1=CN/C(=C(/C)C(=O)OC)SC1C(=O)OCC (stereo not given)
inactive: MCF7 > 93.5 µM | U-251 > 100 µM | A498 > 100 µM | PC-3 69.7 µM | HOP-92 > 76.9 µM | UO-31 > 78.5 µM | RXF 393 > 100 µM | HT-29 > 100 µM | MDA-MB-231 > 100 µM | HOP-62 > 100 µM | Malme-3M > 100 µM | MOLT-4 25.6 µM | HCC 2998 > 100 µM | SK-OV-3 > 100 µM | NCI-H522 > 76.7 µM | SK-MEL-5 58.3 µM | SF-295 > 100 µM | DU-145 > 100 µM | KM12 > 100 µM | COLO 205 > 100 µM

CS(=O)(=O)OCCCCOS(=O)(=O)CF
inactive: MCF7 > 95.1 µM | U-251 > 100 µM | A498 > 100 µM | PC-3 > 100 µM | HOP-92 > 49.5 µM | UO-31 > 100 µM | RXF 393 > 100 µM | HT-29 > 100 µM | MDA-MB-231 > 100 µM | HOP-62 > 100 µM | Malme-3M > 46.5 µM | MOLT-4 32.9 µM | HCC 2998 > 100 µM | SK-OV-3 > 100 µM | NCI-H522 > 100 µM | SK-MEL-5 > 100 µM | SF-295 > 100 µM | DU-145 > 100 µM | KM12 > 100 µM | COLO 205 > 100 µM

Fc1c(F)c(C(F)(F)F)c(F)c(F)c1N/N=C\c1c[nH]c2ccccc12
inactive: MCF7 2.69 µM | U-251 3.23 µM | A498 3.44 µM | PC-3 2.13 µM | HOP-92 3.61 µM | UO-31 1.16 µM | RXF 393 2 µM | HT-29 2.48 µM | MDA-MB-231 3.03 µM | HOP-62 1.55 µM | Malme-3M 3.92 µM | MOLT-4 2.19 µM | HCC 2998 1.85 µM | SK-OV-3 1.39 µM | NCI-H522 1.74 µM | SK-MEL-5 1.82 µM | SF-295 2.2 µM | DU-145 3.64 µM | KM12 1.94 µM | COLO 205 1.28 µM

Cc1cccc(NC(=O)O/N=C(\Cl)C(C)C)c1
inactive: MCF7 10 µM | U-251 20.7 µM | A498 18.5 µM | PC-3 16.7 µM | HOP-92 1.66 µM | UO-31 16.6 µM | RXF 393 13.9 µM | HT-29 10.4 µM | MDA-MB-231 17.9 µM | HOP-62 19 µM | Malme-3M 2.19 µM | MOLT-4 2.15 µM | HCC 2998 19.1 µM | SK-OV-3 17.7 µM | NCI-H522 1.54 µM | SK-MEL-5 16.4 µM | SF-295 17.5 µM | DU-145 18.6 µM | KM12 19.4 µM | COLO 205 2.01 µM

Nc1nn2c(nc(N)c3c(N)n[nH]c32)c1/N=N\c1ccc(Br)cc1
active: MDA-MB-231 0.524 µM
inactive: MCF7 > 100 µM | U-251 6.01 µM | A498 > 100 µM | PC-3 > 100 µM | HOP-92 3.71 µM | UO-31 > 100 µM | RXF 393 > 100 µM | HT-29 55.8 µM | HOP-62 42.9 µM | Malme-3M 4.42 µM | MOLT-4 3.53 µM | HCC 2998 > 100 µM | SK-OV-3 > 100 µM | NCI-H522 27.5 µM | SK-MEL-5 > 100 µM | SF-295 > 100 µM | DU-145 > 100 µM | KM12 13.1 µM | COLO 205 > 63.2 µM

NC(=O)CCSC(CC(=O)c1ccc(Cl)cc1)c1ccc(Cl)cc1 (stereo not given)
inactive: MCF7 5.08 µM | U-251 16.2 µM | A498 22.5 µM | PC-3 34.6 µM | HOP-92 15 µM | UO-31 26.7 µM | RXF 393 17.9 µM | HT-29 19.9 µM | MDA-MB-231 40.2 µM | HOP-62 28.1 µM | Malme-3M 24.9 µM | MOLT-4 10.4 µM | HCC 2998 18.2 µM | SK-OV-3 38.1 µM | NCI-H522 23.2 µM | SK-MEL-5 17.2 µM | SF-295 25.2 µM | DU-145 27.5 µM | KM12 6.11 µM | COLO 205 33 µM
